How the values were obtained:
Assay type in all cases: biochemical
CYP1A2 = biological target: T1, CYP1A2 (Homo sapiens, UniProt P05177); assay: Reversible CYP1A2 inhibition, cocktail assay (phenacetin O-deethylase) in human liver microsomes
T1 construct: tissue Corning Life Sciences; host or cells: pooled human liver microsomes, 150 donors
T1 sequence (P05177 1-516): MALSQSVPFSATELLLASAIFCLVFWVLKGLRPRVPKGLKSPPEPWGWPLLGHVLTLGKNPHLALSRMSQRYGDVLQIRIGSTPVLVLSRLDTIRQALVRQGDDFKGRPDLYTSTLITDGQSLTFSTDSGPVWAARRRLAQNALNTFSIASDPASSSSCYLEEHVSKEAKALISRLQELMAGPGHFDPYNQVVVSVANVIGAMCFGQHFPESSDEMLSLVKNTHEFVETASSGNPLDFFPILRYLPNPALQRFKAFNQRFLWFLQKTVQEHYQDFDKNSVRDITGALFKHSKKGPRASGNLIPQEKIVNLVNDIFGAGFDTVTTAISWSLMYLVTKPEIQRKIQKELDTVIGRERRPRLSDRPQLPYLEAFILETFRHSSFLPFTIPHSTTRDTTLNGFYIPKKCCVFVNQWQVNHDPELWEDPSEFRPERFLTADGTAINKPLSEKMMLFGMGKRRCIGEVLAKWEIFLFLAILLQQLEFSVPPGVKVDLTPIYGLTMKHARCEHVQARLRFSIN
Method: (§1) The inhibitory effects of SPN on CYP1A2, CYP2A6, CYP2B6, CYP2C8, CYP2C9, CYP2C19, CYP2D6, CYP2E1, and CYP3A4 were evaluated in pooled human liver microsomes through the use of specific CYP probe substrates (cocktail assay), as previously described with a slight modification. Concentrations of each CYP probe in Table 1 were used close to their reported Km values.
(§2) Briefly, a 90-µL incubation mixture, including pooled human liver microsomes (final concentration 0.1 mg/mL), 50 mM phosphate buffer (pH 7.4), each CYP-probe substrate cocktail set, and SPN (0–50 μM), was pre-incubated for 5 min at 37 °C. SPN was dissolved in methanol and spiked into the incubation mixture to a final concentration of 0.5% methanol. […]
(§3) The IC50 values were calculated via nonlinear least-squares regression analysis from logarithmic plots of inhibitor concentration versus percentage of activity remaining after inhibition, using SigmaPlot (ver. 14.0; Systat Software Inc, Chicago, IL, USA). The Ki values were determined from the equations for a single substrate single inhibitor model and the software available in the SigmaPlot Enzyme Kinetics module. Competitive, non-competitive, uncompetitive, or mixed inhibition models were evaluated and ranked according to the best fit based on Akaike Information Criterion (AIC) values. […]

CYP2C19 = biological target: T2, CYP2C19 (Homo sapiens, UniProt P33261); assay: Reversible CYP2C19 inhibition, cocktail assay (omeprazole 5-hydroxylase) in human liver microsomes; conditions: human liver microsomes 0.1 mg/mL, omeprazole probe, n = 3
T2 construct: tissue Corning Life Sciences; host or cells: pooled human liver microsomes, 150 donors
Method: as §1, §2, §3

CYP2E1 = biological target: T3, CYP2E1 (Homo sapiens, UniProt P05181); assay: Reversible CYP2E1 inhibition, cocktail assay (chlorzoxazone 6-hydroxylase) in human liver microsomes
T3 construct: tissue Corning Life Sciences; host or cells: pooled human liver microsomes, 150 donors
Method: as §1
Briefly, a 90-µL incubation mixture, including pooled human liver microsomes (final concentration 0.1 mg/mL), 50 mM phosphate buffer (pH 7.4), each CYP-probe substrate cocktail set, and SPN (0–50 μM), was pre-incubated for 5 min at 37 °C. SPN was dissolved in methanol and spiked into the incubation mixture to a final concentration of 0.5% methanol. All P450-selective substrates (except coumarin due to solubility) were dissolved in methanol and serially diluted with methanol to the required concentrations, and the organic solvent was subsequently evaporated under a gentle stream of N2 gas to minimize the effects of organic solvents on CYP activities. On the other hand, coumarin dissolved in 50 mM phosphate buffer (pH 7.4) was directly added into the mixed tube. The reaction was initiated by adding 10-µL aliquot of NADPH-generating system (1.3 mM NADP^+, 3.3 mM glucose 6-phosphate, 3.3 mM MgCl2, and 0.4 unit/mL glucose-6-phosphate dehydrogenase) before 15 min incubation at 37 °C in a shaking water bath. […]
as §3

[1] = system: CYP1A2, CYP2A6, CYP2B6, CYP2C8, CYP2C9, CYP2C19, CYP2D6, CYP2E1, and CYP3A4; assay: Time-dependent inactivation (IC50 shift) of the nine CYP isoforms in human liver microsomes; conditions: 30 min pre-incubation with human liver microsomes in the presence of NADPH
Method: Pooled human liver microsomes (1 mg/mL) were incubated with SPN (0−50 µM) for 30 min at 37 °C in the absence or presence of an NADPH-generating system (i.e., the “inactivation incubation”). After inactivation incubation, aliquots (10 μL) were transferred into fresh incubation tubes (final volume 100 μL) containing an NADPH-generating system and each P450-selective substrate cocktail set. The reaction mixtures were incubated for 15 min at 37 °C in a shaking water bath. After incubation, the reactions were stopped by adding 200 µL of ice-cold acetonitrile containing 2 µM chlorpropamide, as an internal standard. The incubation mixtures were centrifuged (16,000× g, 15 min) and 5 μL of the supernatant was injected into the LC-MS/MS system. All incubations were performed in triplicate, and the data are shown as the mean ± standard deviation.

[2] = at the highest tested concentration (50 μM)

T3 sequence (P05181 whole entry): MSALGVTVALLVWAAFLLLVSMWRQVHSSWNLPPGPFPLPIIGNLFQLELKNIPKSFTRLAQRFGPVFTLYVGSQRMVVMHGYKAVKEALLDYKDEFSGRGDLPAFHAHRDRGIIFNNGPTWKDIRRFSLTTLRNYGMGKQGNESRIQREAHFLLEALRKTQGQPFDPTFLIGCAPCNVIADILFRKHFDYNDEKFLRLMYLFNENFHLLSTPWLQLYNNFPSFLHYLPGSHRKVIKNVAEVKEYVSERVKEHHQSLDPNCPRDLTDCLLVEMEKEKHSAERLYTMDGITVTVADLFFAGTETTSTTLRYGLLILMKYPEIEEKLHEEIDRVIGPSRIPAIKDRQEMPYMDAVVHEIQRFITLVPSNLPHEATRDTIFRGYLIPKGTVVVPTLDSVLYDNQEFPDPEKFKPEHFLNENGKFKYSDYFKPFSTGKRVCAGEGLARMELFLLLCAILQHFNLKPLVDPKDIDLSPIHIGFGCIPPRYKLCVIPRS
T2 sequence (P33261 whole entry): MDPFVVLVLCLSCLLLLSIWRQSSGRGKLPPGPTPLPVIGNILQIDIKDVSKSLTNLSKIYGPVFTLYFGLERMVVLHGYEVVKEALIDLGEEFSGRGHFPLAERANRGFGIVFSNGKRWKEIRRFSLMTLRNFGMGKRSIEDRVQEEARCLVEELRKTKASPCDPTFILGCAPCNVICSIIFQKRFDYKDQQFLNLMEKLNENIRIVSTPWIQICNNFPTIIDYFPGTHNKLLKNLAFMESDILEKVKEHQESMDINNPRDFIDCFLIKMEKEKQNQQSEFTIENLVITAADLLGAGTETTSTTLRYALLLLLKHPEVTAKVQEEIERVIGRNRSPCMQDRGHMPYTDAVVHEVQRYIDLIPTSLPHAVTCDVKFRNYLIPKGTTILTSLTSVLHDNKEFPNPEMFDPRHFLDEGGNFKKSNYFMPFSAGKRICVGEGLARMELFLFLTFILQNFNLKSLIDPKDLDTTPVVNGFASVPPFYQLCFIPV

residual enzyme activity, CYP1A2 (CYP1A2; [2]): greater than 80%
IC50 (CYP1A2; human liver microsomes 0.1 mg/mL, cocktail assay, phenacetin probe, n = 3): > 50 µM
IC50 (CYP2C19): 16.8 ± 3.21 µM
residual enzyme activity, CYP2E1 (CYP2E1; [2]): greater than 80%
IC50 (CYP2E1; human liver microsomes 0.1 mg/mL, cocktail assay, chlorzoxazone probe, n = 3, read-out: IC50 Values, CYP2E1): > 50 µM
shift in IC50 after pre-incubation (time-dependent inactivation of the nine CYPs) [1]: no obvious shift in IC50
SMILES: CC(C)=CCc1cc([C@@H]2CC(=O)c3ccc(O)c(CC=C(C)C)c3O2)cc(CC=C(C)C)c1O [SPN, (‒)-Sophoranone]
